From PMC13198257, “An aerosolized dual-action autotaxin inhibitor-PPARγ agonist for the treatment of pulmonary fibrosis” (Cell Reports Medicine, 2026)

Tested on: lung gene expression
Assay: RNA sequencing of lung tissue (BLM/EL244 vs BLM)
Assay type: in vivo, mouse
Settings: lung tissue, BLM/EL244 vs BLM
Experimental: RNA quality was assessed using an Agilent TapeStation 4150 with the High Sensitivity […] ScreenTape (Agilent), according to the manufacturer’s protocols. For library preparation, the QuantSeq 3’mRNA-Seq Library Prep Kit (Lexogen) was used according to manufacturer’s instructions. Briefly, 500 ng of RNA from each sample was used for first-strand synthesis, followed by RNA template removal, and second-strand synthesis initiated by random primers. In-line barcodes were introduced at this step, and this was followed by magnetic bead-based purification. The resulting libraries were amplified for 15 cycles and re-purified, with quantity and quality assessed on a Qubit 4 Fluorometer with the Invitrogen Qubit dsDNA HS Assay and an Agilent Tapestation 4150 with the High Sensitivity D1000 assay kit, respectively. The quantified libraries were pooled equimolarly; 50ng of total library mix was used for Adapter Conversion PCR Amplification using the Universal Library Conversion Kit (App-A), Version: V1.0 (MGI Tech Co., Ltd.), according to the manufacturer’s instructions.
The quantity and quality of the purified adapter conversion PCR (AC-PCR) product were evaluated on a Qubit 4 Fluorometer with the Invitrogen Qubit dsDNA HS Assay and on an Agilent Tapestation 4150 with the High Sensitivity D1000 assay kit, respectively. This was followed by DNA denaturation, Single-Strand Circularisation, Enzymatic Digestion, Enzymatic Digestion Product Cleanup and Quality Control steps on 1 pmol of AC-PCR product, according to the Universal Library Conversion Kit (App-A) User Manual (Version: A3).
Finally, 60 fmol of ssCirDNA were used for DNB preparation and sequencing on a DNBSEQ-G400 platform at the BSRC Alexander Fleming Genomics Facility, using a G400 App-A FCS SE100 High-throughput Sequencing Set (MGI Tech Co., Ltd.), according to the manufacturer’s instructions.
Alignment of the FASTQ files was performed against the mouse genome build mm10 using a custom Bash script.[143] Read counting on the 3′ UTRs and differential expression analysis were conducted using the metaseqR2 bioconductor package.[144] Genes corresponding to the following biotypes were excluded: polymorphic_pseudogene, processed_transcript, pseudogene, IG_V_pseudogene, misc_RNA, IG_C_gene, IG_J_gene, IG_D_gene, IG_LV_gene, TR_V_gene, TR_V_pseudogene, TEC, and processed_pseudogene. Gene counts were normalized with DESEQ[145] through metaseqR2. Genes with more than 10 counts in at least 50% of the samples were kept for further processing. For differential expression analysis, the PANDORA algorithm[146] was used to estimate a meta p-value integrating the results from the DESEQ, DESEQ2,[147] edgeR,[148] limma,[149] NBPSeq,[150] and NOISeq[151] algorithms. All additional parameters were set to default values.
Pathway enrichment analysis was performed for the Gene Ontology Biological process (BP) and Molecular Function (MF) terms through GeneCodis 4.[152] The volcano plots, scatterplots, Venn diagrams, and dot plots were generated using the ggplot2 Bioconductor package.

What does the source list for `O=C1NC(=O)C(Cc2ccc(OCCC3CCN(C(=O)OCc4cc(Cl)cc(Cl)c4)CC3)cc2)S1` (stereo not shown) [EL244, 3,5-dichlorobenzyl 4-(2-(4-((2,4-dioxothiazolidin-5-yl)methyl)phenoxy)ethyl)piperidine-1-carboxylate]?
Prrx2 nFC: 0.30; Prss23 log2 nFC: 0.67; Prss23 nFC: 1.60; Ptprb log2 nFC: 0.67; Ptprb nFC: 1.59; Rad51 log2 nFC: -1.90; Rad51 nFC: 0.27; Rad54l log2 nFC: -1.87; Rad54l nFC: 0.27; Rbm33 log2 nFC: 0.58; Rbm33 nFC: 1.50; Rcan1 log2 nFC: -0.84; Rcan1 nFC: 0.56; Rcn3 log2 nFC: -0.66; Rcn3 nFC: 0.63; Retnla log2 nFC: -2.32; Retnla nFC: 0.20; Rgs16 log2 nFC: -2.59; Rgs16 nFC: 0.17; Rnaset2a log2 nFC: -0.70; Rnaset2a nFC: 0.62; Rps27l log2 nFC: -0.70; Rps27l nFC: 0.62; Rrm1 log2 nFC: -0.81; Rrm1 nFC: 0.57; Rrm2 log2 nFC: -2.56; Rrm2 nFC: 0.17; S100a11 log2 nFC: -0.60; S100a11 nFC: 0.66; Saa3 log2 nFC: -2.75; Saa3 nFC: 0.15; Sash1 log2 nFC: 0.59; Sash1 nFC: 1.50; Scarb1 log2 nFC: -0.72; Scarb1 nFC: 0.61; Scgb3a2 log2 nFC: 0.65; Scgb3a2 nFC: 1.56; Selenop log2 nFC: 0.58; Selenop nFC: 1.50; Sfrp1 log2 nFC: -1.73; Sfrp1 nFC: 0.30; Sftpc log2 nFC: 0.62; Sftpc nFC: 1.54; Sgo2a log2 nFC: -1.68; Sgo2a nFC: 0.31; Sh3pxd2b log2 nFC: -0.78; Sh3pxd2b nFC: 0.58; Shcbp1 log2 nFC: -1.60; Shcbp1 nFC: 0.33; Sirpa log2 nFC: -0.71; Sirpa nFC: 0.61; Ska1 log2 nFC: -2.52; Ska1 nFC: 0.17; Slc7a11 log2 nFC: -1.50; Slc7a11 nFC: 0.35; Slc36a1 log2 nFC: -0.81; Slc36a1 nFC: 0.57; Slc39a1 log2 nFC: -0.63; Slc39a1 nFC: 0.65; Snrnp40 log2 nFC: -0.60; Snrnp40 nFC: 0.66; Snrpd1 log2 nFC: -0.64; Snrpd1 nFC: 0.64; Socs3 log2 nFC: -0.62; Socs3 nFC: 0.65; Sox4 log2 nFC: -0.80; Sox4 nFC: 0.57; Sox9 log2 nFC: -1.42; Sox9 nFC: 0.37; Spag5 log2 nFC: -1.65; Spag5 nFC: 0.32; Sparc log2 nFC: -0.74; Sparc nFC: 0.60; Spc25 log2 nFC: -2.02; Spc25 nFC: 0.25; Spp1 log2 nFC: -1.50; Spp1 nFC: 0.35; Ssc5d log2 nFC: -1.71; Ssc5d nFC: 0.31; Ssh2 log2 nFC: 0.66; Ssh2 nFC: 1.58; Sting1 log2 nFC: -0.77; Sting1 nFC: 0.59; Stmn1 log2 nFC: -0.70; Stmn1 nFC: 0.62; Stxbp6 log2 nFC: 0.64; Stxbp6 nFC: 1.56; Tacc2 log2 nFC: 0.66; Tacc2 nFC: 1.57; Taf10 log2 nFC: -0.59; Taf10 nFC: 0.67; Tceal9 log2 nFC: -0.69; Tceal9 nFC: 0.62; Tcf19 log2 nFC: -1.42; Tcf19 nFC: 0.37; Tfdp1 log2 nFC: -0.74; Tfdp1 nFC: 0.60; Tgfbi log2 nFC: -0.68; Tgfbi nFC: 0.62; Tgif1 log2 nFC: -0.75; Tgif1 nFC: 0.60; Thbs4 log2 nFC: -2.34; Thbs4 nFC: 0.20; Thoc6 log2 nFC: -0.81; Thoc6 nFC: 0.57; Timm44 log2 nFC: -0.72; Timm44 nFC: 0.61; Timp1 log2 nFC: -2.30; Timp1 nFC: 0.20; Tk1 log2 nFC: -2.01; Tk1 nFC: 0.25; Tmem37 log2 nFC: -0.82; Tmem37 nFC: 0.57; Tmem252 log2 nFC: -0.70; Tmem252 nFC: 0.62; Tmsb10 log2 nFC: -0.58; Tmsb10 nFC: 0.67; Tnc log2 nFC: -2.35; Tnc nFC: 0.20; Tnfrsf1b log2 nFC: -0.70; Tnfrsf1b nFC: 0.61; Tnip3 log2 nFC: -1.47; Tnip3 nFC: 0.36; Tns1 log2 nFC: 0.67; Tns1 nFC: 1.59; Top2a log2 nFC: -1.97; Top2a nFC: 0.25; Tpx2 log2 nFC: -2.92; Tpx2 nFC: 0.13; Trem2 log2 nFC: -1.42; Trem2 nFC: 0.37; Trip13 log2 nFC: -1.42; Trip13 nFC: 0.37; Tspan7 log2 nFC: 0.64; Tspan7 nFC: 1.56; Tubb5 log2 nFC: -0.77; Tubb5 nFC: 0.59; Tubb6 log2 nFC: -0.75; Tubb6 nFC: 0.59; Txnip log2 nFC: 0.65; Txnip nFC: 1.56; Tyrobp log2 nFC: -0.69; Tyrobp nFC: 0.62; Ube2c log2 nFC: -1.80; Ube2c nFC: 0.29; Uhrf1 log2 nFC: -1.72; Uhrf1 nFC: 0.30; Utrn log2 nFC: 0.68; Utrn nFC: 1.60; Vangl2 log2 nFC: -0.76; Vangl2 nFC: 0.59; Xcl1 log2 nFC: -1.81; Xcl1 nFC: 0.29; Zfp46 log2 nFC: -0.70; Zfp46 nFC: 0.62; Zranb3 log2 nFC: -1.43; Zranb3 nFC: 0.37; Zwilch log2 nFC: -1.54; Zwilch nFC: 0.34; log2 nFC 1500009L16Rik: -1.23; log2 nFC 2200002D01Rik: -0.88; log2 nFC AA467197: -1.39; log2 nFC Adamts2: -1.00; log2 nFC Areg: -1.03; log2 nFC Arhgap11a: -1.13; log2 nFC Armcx4: -1.32; log2 nFC Asf1b: -1.14; log2 nFC Bcl2a1b: -1.15; log2 nFC Bcl2a1d: -1.29; log2 nFC Bub1b: -1.19; log2 nFC C1qtnf5: -0.87; log2 nFC C1qtnf6: -1.38; log2 nFC Ccdc8: -1.11; log2 nFC Ccl9: -1.37; log2 nFC Ccl17: -0.95; log2 nFC Cd68: -0.99; log2 nFC Cd72: -1.01; log2 nFC Cd248: -1.25; log2 nFC Cd300c2: -0.89; log2 nFC Cdca2: -1.33; log2 nFC Cenpa: -1.31; log2 nFC Cenpw: -1.33; log2 nFC Cercam: -1.37; log2 nFC Ch25h: -0.91; log2 nFC Cilp: -1.39; log2 nFC Clcn5: -0.92; log2 nFC Clec4a2: -1.26; log2 nFC Clec4n: -1.39; log2 nFC Clec5a: -1.14; log2 nFC Clec11a: -1.00; log2 nFC Clec12a: -0.91; log2 nFC Col1a2: -1.41; log2 nFC Col8a1: -1.19; log2 nFC Col12a1: -0.90; log2 nFC Col15a1: -1.10; log2 nFC Col16a1: -0.92; log2 nFC Cotl1: -0.88; log2 nFC Csf2rb2: -0.99; log2 nFC Cstb: -0.95; log2 nFC Ctsk: -0.98; log2 nFC Ctss: -0.92; log2 nFC Cx3cr1: -1.17; log2 nFC Cyp7b1: -1.41; log2 nFC Dbn1: -0.88; log2 nFC Dclk1: -0.86; log2 nFC Diaph3: -1.13; log2 nFC Dio2: -1.39; log2 nFC Dok2: -1.37; log2 nFC Dut: -0.89; log2 nFC Egr2: -0.89; log2 nFC Epha4: -0.89; log2 nFC F10: -1.11; log2 nFC Fam20c: -1.06; log2 nFC Fbn1: -1.03; log2 nFC Fcgr1: -1.30; log2 nFC Fcgr2b: -1.08; log2 nFC Fcrls: -1.35; log2 nFC Fen1: -1.00; log2 nFC Fgf13: -1.40; log2 nFC Fkbp10: -1.25; log2 nFC Fndc1: -1.11; log2 nFC Fscn1: -1.22; log2 nFC Fst: -1.05; log2 nFC Fstl1: -1.21; log2 nFC Gas2l3: -1.32; log2 nFC Gm13889: -0.85; log2 nFC Gm25380: -1.01; log2 nFC Gm42674: -1.18; log2 nFC Gm49339: -0.94
